Legend:
Staphylococcus aureus = experiment: Disk diffusion antimicrobial susceptibility with PS-impregnated antibiotic disks; assay type: cell-based; settings: 24 h, mean ± SD
Procedure: Briefly, Staphylococcus aureus grown in culture was seeded evenly on Muller-Hinton II Agar plates (BD Diagnostic Systems) at the standard concentration of 2×10^8 colony-forming units per mL. Antibiotic antimicrobial susceptibility disks (Thermo Scientific Oxoid™) were impregnated with one of six concentrations of PS (0%, 1%, 2%, 3%, 6%, 9%); 10 μL of each was evenly dispensed on each disk. An additional control was disks with no PS and no vehicle. The growth of bacteria around each disk was monitored and the area of “no growth” around each disk was measured 24 h later.

MMPs = experiment: General MMP activity in rabbit cornea (FRET peptide); assay type: in vivo
Procedure: The general activity of MMPs was determined in the corneas of three groups of rabbits. This MMP activity assay employs a fluorescence resonance energy transfer (FRET) peptide as a generic MMP indicator. Rabbits were treated with PS 1.6% or ketorolac 0.5% eye drops topically applied to their eyes or were not treated (naïve group). Results in relative fluorescence units (RFU)/mg protein (mean±SEM). Naïve=1,328±123; PS=749±218; Ketoroloac=1,272±106 (p<0.03 vs PS).
In an acute experiment, naïve rabbits were treated with either PS or ketorolac (both administered topically) for 1 h and determined the activity of MMP in the cornea. This assay determines the activity of MMPs collectively in a given tissue.

[1] = system: concanavalin A-induced dry eye in rabbits; experiment: Concanavalin A (Con A)-induced dry eye disease (DED) model in rabbits: TBUT, Schirmer test, tear osmolarity, tear lactoferrin; assay type: in vivo, rabbit; settings: after 1 week of treatment with NSAID; FIG. 5
Procedure: To assess the efficacy of PS on DED an improved concanavalin A model was used. In the concanavalin A model, dry eye is induced by injecting the lacrimal glands of a mammal with concanavalin A, a selective T cell mitogen that induces a lymphocytic infiltrate in these glands. The concanavalin A model is generally described in (Barabino S. Animal models of dry eye. Arch Soc Esp Oftalmol. 2005; 80(12):693-4). Concanavalin A was injected to the lacrimal glands under ultrasound guidance, thus eliminating injections to the vicinity of the gland (as opposed to the gland itself). The head and the tail of the major lacrimal gland of the rabbit were injected separately. The dose of concanavalin A was optimized for DED signs.
In the testing described below, four markers of DED are monitored: the tear break up time (TBUT), the Schirmer test, tear osmolarity, and tear lactoferrin levels. All assays were performed at the same clock time (±1 hr) to avoid assay variability on account of circadian variations.
In an efficacy experiment using the concanavalin A model, one group of rabbits was treated with compound 5, also known as phosphosulindac and abbreviated as PS, 1.5% eye drops and one group with vehicle. […] It is thus clear that PS applied topically suppresses DED.
Con A was injected under ultrasound guidance into all the lacrimal glands and the success of the injection was verified by a post-injection ultrasound image (see FIG. 1 and FIG. 2). […] This variation explains why the blind injections recommended in the original method are often unsuccessful. This was confirmed by mixing the Con A solution with methylene blue and tracking its course after injection. In about ⅓ of the cases, Con A ended up outside the gland.
Four parameters of efficacy were evaluated instead of the usual one or two. They include (a) the tear break up time (TBUT), determined using 0.2% fluorescein over the eye and recording the time taken to develop black dots, lines or obvious disruption of the fluorescein film; (b) tear osmolarity, measured using TearLab Osmolarity Test and following the manufacturer's instructions (TearLab Corp., San Diego, Calif.); (3) Schirmer tear test (STT), determined using Schirmer strips (EagleVision, Denville, N.J.) inserted between the cornea and the palpebral conjunctiva at the mid-point of the lower lid and measuring the length of moistened strip at 5 min; and (4) tear lactoferrin levels measured by ELISA kit (MyBiosource, San Diego, Calif.) following the instructions of the manufacturer. All four have been used in clinical practice and correlate with the clinical activity of the disease. The STT is the least reliable and, as result, it is clinically used less than half as frequently as TBUT.
The injections of Con A to the lacrimal glands were repeated weekly as needed. When longer than a 1-week periods of study are needed, repeat injections prolong dry eye for at least 3 weeks, making the originally acute model chronic.
PS Suppresses Con A—Induced Dry Eye in Rabbits. The effect of PS on dry eye was determined in New Zealand White (NZW) rabbits, 2-3 kg (Charles River Labs, Waltham, Mass.). These rabbits were housed singly in rooms with strict temperature (70±5° F.) and humidity (45±5%) control and acclimated for at least 2 weeks prior to induction of dry eye by injection of Con A as above. NZW rabbits with Con A-induced dry eye (three sets of injections) were treated with PS formulated as nanoparticles and administered topically as eye drops 3×/day for 21 days, starting on the day of Con A injection. […] Similar results were obtained on days 5 and 14 (data not shown).
Using this model, we compared the effect of PS to that of cyclosporine and lifitegrast. Rabbits were treated for 6 days with PS as above or cyclosporine 0.05% or lifitegrast 5% eye drops 3×/day. In addition to determining TUBT, osmolarity and STT, we measured the levels of IL-8 and IL-1β in the ILGs of the rabbits harvested at euthanasia. […]

PGE2 = PGE2 levels in tears and cornea of rabbits by ELISA; assay type: in vivo, rabbit; settings: for PGE2 levels in the cornea: administered once topically, 1 h later, FIG. 9B; for PGE2 levels in the cornea, % of the vehicle value: day 6, PS 2.3%, diclofenac 0.1%
Procedure: The effects of PS, ketorolac and dicofenac (the latter two ophthalmic NSAIDs known to induce corneal melt) on the tear levels of PGE2 in rabbits with concanavalin A-induced dry eye were compared. Three eye drops of PS 1.5% or of commercially available ketorolac 0.5% were given at 0 time, and 1 h later to rabbits with concanavalin A-induced DED. Tears were obtained at 2 h and the levels of PGE2 were determined by ELISA. PGE2 in tears of naïve rabbits (not exposed to concanavalin A nor treated) was also measured. The PGE2 levels (mean±SEM) were: Naïve, 110.4±12.6 ng/ml; PS-treated, 115.4±15.8 ng/ml; Ketorolac-treated, 77.7±8.7 ng/ml. The difference in PS vs. ketorolac was significant, p<0.02; as was the difference in ketorolac vs naïve, p<0.03. Regarding this parameter, PS differs radically form ketorolac, which induces corneal melt.
Levels of PGE2 in the corneas of three groups of rabbits were determined by ELISA. Rabbits were treated with PS 1.6% or ketorolac 0.5% eye drops topically applied to their eyes or were not treated (naïve group). Results in pg/mg protein (mean±SEM). Naïve=787.3±96.3; PS=880.6±110.3; Ketrolorac=247.2±187.4 (p<0.01 vs PS).
Rabbits with DED induced by concanavalin A as above were treated for 6 days with vehicle, or PS 2.3% or ketorolac 0.5% or diclofenac 0.1%. Compared to the vehicle group, on day 6 the PGE2 levels in the cornea were 106% of the vehicle value in the PS group (not a statistically significant difference), 1.3% in the ketorolac group (p<0.0001 vs. vehicle, and 2.3% in the diclofenac group (p<0.0001 vs. vehicle).
It was determined that the levels of PGE2 in rabbit tears in three groups of rabbits, naïve and those with Con A-induced DED that were treated for 1 week either with PS or vehicle.
In an acute experiment, administered once topically to the eyes of four groups of rabbits with Con A-induced DED was one of the following: vehicle, PS, ketorolac or diclofenac; the latter two are NSAIDs used for the treatment of ocular inflammation and pain. It was determined that the levels of PGE2 in the cornea of these rabbits obtained 1 h later as well as in the corneas of naïve rabbits.

[2] = system: cornea of New Zealand white rabbits; experiment: Corneal touch threshold (CTT), Cochet-Bonnet aesthesiometer; assay type: in vivo, rabbit; settings: Lidocaine 1%
Procedure: The analgesic effect of PS was determined by measuring the corneal touch threshold (CTT) using the Luneau Cochet-Bonnet Aeshesiometer (Western Ophthalmics, Lynwood, Wash.), an adjustable nylon monofilament with a defined diameter, which is applied in different lengths to the center of the cornea. This device is generally described in Lima L, Lange R R, Turner-Giannico A, Montiani-Ferreira F. Evaluation of standardized endodontic paper point tear test in New Zealand white rabbits and comparison between corneal sensitivity followed tear tests. Vet Ophthalmol. 2015; 18 Suppl 1:119-24.
A stimulus produced by the filament that reaches the CTT induces a corneal reflex, consisting of prompt eyelid closure. The CTT is quantified as centimeter length of the filament necessary to cause the blink reflex.
The CTT is determined before (baseline) and at various time points after the application of the test compound (PS). PS was formulated either in β-cyclodextrin (42 or 8 mg/ml) or in a nanocarrier (19 mg/ml). The test drug was formulated in a nanocarrier by the emulsion and evaporation method (Vauthier C, Bouchemal K. Methods for the Preparation and Manufacture of Polymeric Nanoparticles. Pharmaceutical Research; 2009; 26:1025-1058). The formulated stable drug suspension consisted of polylactic acid and polyethylene glycol (PLLA(10k)-PEG(2k)); sodium cholate; and PS. The vehicle control was either β-cyclodextrin or the nanocarrier without PS. Commercially available lidocaine 1% was used as a positive control.
To each eye of adult New Zealand white rabbits was applied […] drops of PS or vehicle or lidocaine, with 5 minutes between each drop. The time of the last drop was taken as the 0 time.
The analgesic effect of PS was further examined on the surface of the eye by determining the corneal touch threshold (CTT) using the Luneau Cochet-Bonnet Aesthesiometer (Western Ophthalmics, Lynwood, Wash.) an adjustable nylon monofilament with a defined diameter, which is applied in different lengths to the center of the cornea.

[3] = system: chorioallantoic membrane (CAM); experiment: Chorioallantoic membrane (CAM) neovascularization assay; assay type: in vivo, chicken; settings: VEGF alone; day 4; Mean ± SEM
Procedure: Second, the effect of PS on new vessel formation (neovascularization) was evaluated using the chorioallantoic membrane (CAM) assay. In this assay, fertilized white chicken eggs (SPF Premium, Charles River Laboratory, North Franklin, Conn.) were incubated at 37° C. in 70% humidity for 3 days. The embryos were then incubated ex vivo in a sterile Petri dish for 7 days. Gelatin sponges adsorbed with or without VEGF plus PS or water (vehicle control) were implanted on the CAM surface and the neovasculature was counted on day 4 post implantation under a dissecting microscope.

[4] = antibiotic disk with PS 0% (vehicle only)
[5] = rabbits, PS 1.6% or ketorolac 0.5% eye drops, mean±SEM
[6] = Con A DED rabbits, ketorolac 0.5%

Compound | Inhibition Zone (Staphylococcus aureus; [4]) [mm] | Inhibition Zone (Staphylococcus aureus; antibiotic disk with PS 1%) [mm] | Inhibition Zone (Staphylococcus aureus; antibiotic disk with PS 2%) [mm] | Inhibition Zone (Staphylococcus aureus; antibiotic disk with PS 3%) [mm] | Inhibition Zone (Staphylococcus aureus; antibiotic disk with PS 6%) [mm] | Inhibition Zone (Staphylococcus aureus; antibiotic disk with PS 9%) [mm] | TBUT, osmolarity and STT [1] | PGE2 levels in the cornea (PGE2; Con A DED rabbits) | PGE2 levels in the cornea, % of the vehicle value (PGE2; [6]) [%] | further results
O=C(O)c1cn(C2CC2)c2cc(N3CCNCC3)c(F)cc2c1=O [Ciprofloxacin] | 30.0 ± 0.0 | 30.3 ± 0.6 | 29.7 ± 0.6 | 29.3 ± 0.6 | 27.7 ± 0.4 | 29.7 ± 0.6 |  |  |  | 
O=C(c1ccccc1)c1ccc2n1CCC2C(=O)O (stereo not shown) [Ketorolac, ketorolac] |  |  |  |  |  |  | failed to improve | suppressed nearly completely | 1.3 | MMP activity in the cornea (MMPs; naïve rabbits, topical, 1 h): failed to affect; general activity of MMPs in the corneas (MMPs; [5]): 1,272±106 RFU/mg protein; PGE2 levels in tears (PGE2; Con A DED rabbits, three eye drops at 0 and 1 h, tears at 2 h, PS 1.5%, ketorolac 0.5%, mean±SEM): 77.7 ± 8.7 ng/mL; PGE2 levels in the corneas (PGE2; [5]): 247.2±187.4 pg/mg protein
C[C@H]1COc2c(N3CCN(C)CC3)c(F)cc3c(=O)c(C(=O)O)cn1c23 [Levofloxacin] | 32.3 ± 0.6 | 32.7 ± 0.6 | 32.0 ± 0.0 | 31.7 ± 0.6 | 32.3 ± 1.5 | 31.0 ± 1.0 |  |  |  | 
CCN(CC)CC(=O)Nc1c(C)cccc1C [Lidocaine, lidocaine, reference compound] |  |  |  |  |  |  |  |  |  | Corneal touch threshold (CTT) ([2]; 1 min): 1.5 ± 1.3 centimeter; Corneal touch threshold (CTT) ([2]; 5 min): 2.3 ± 1.5 centimeter; Corneal touch threshold (CTT) ([2]; 10 min): 3.1 ± 1.9 centimeter; Corneal touch threshold (CTT) ([2]; 20 min): 4.0 ± 1.3 centimeter; Corneal touch threshold (CTT) ([2]; 30 min): 5.8 ± 0.6 centimeter; Corneal touch threshold (CTT) ([2]; 45 min): 5.8 ± 0.6 centimeter; Corneal touch threshold (CTT) ([2]; 60 min): 6.0 ± 0.0 centimeter; Corneal touch threshold (CTT) ([2]; baseline): 6.0 ± 0.0 centimeter
O=C(O)Cc1ccccc1Nc1c(Cl)cccc1Cl [diclofenac] |  |  |  |  |  |  | failed to improve | suppressed nearly completely | 2.3 | 
VEGF [reference compound] |  |  |  |  |  |  |  |  |  | # of new vessels [3]: 62.3 ± 1.8

Reference: patent US11510931B2, “Compositions and methods for treating ophthalmic conditions” (MEDICON PHARMACEUTICALS, INC., priority 2016, dated 2022)
